From patent US11091522B2, “Peptidomimetic macrocycles and uses thereof” (priority 2018, dated 2021) come the findings set out here.

One data set has as its system MCF7 breast cancer cells. The data set is described as follows: Cellular senescence, β-galactosidase substrate X-gal, MCF7. The format is cell-based, human. The settings on record: 0.3 μM each agent, 7 days. The text has this:
The cells were then washed and visualized with β-galactosidase substrate X-gal.

A short description of data set [1]: In vitro metabolite profile, cryopreserved hepatocytes. Format: in vitro ADME, mouse, rat, monkey, human. The settings on record: similar metabolite profile across species.
The next data set has as its system MCF7 cells. Format: cell-based, human. The settings on record: Palbo 0.0 μM.
Data set [2] in a line: Safety pharmacology, cardiac function. The following applies: cynomolgus monkeys. The format is in vivo.

Molecules are shown by their SMILES. Like-named read-outs stand apart in the source and are kept apart here.

For the compound `CC(=O)N[C@@H](CC(C)C)C(=O)N[C@H](C(=O)N[C@@H](Cc1ccccc1)C(=O)N[C@]1(C)CCCCCC/C=C\CCC[C@@](C)(C(=O)N[C@@H](C)C(=O)N[C@@H](C)C(=O)N[C@@H](C)C(=O)N[C@@H](C)C(=O)N[C@@H](C)C(=O)N[C@H](C)C(N)=O)NC(=O)[C@H](CC(C)C)NC(=O)[C@H](CCC(N)=O)NC(=O)[C@H](C)NC(=O)[C@H](Cc2c[nH]c3ccccc23)NC(=O)[C@H](Cc2ccc(O)cc2)NC(=O)[C@H](CCC(=O)O)NC1=O)[C@@H](C)O` [AP1], the cellular senescence entry with MCF7 breast cancer cells is reported as “induced cellular senescence”. Further, the major biotransformation pathway result in data set [1] is “Proteolysis”. Besides, the “% inhibition” value in the data set with MCF7 cells (AP1 0.001 μM) is −2.2%; in the data set with MCF7 cells (AP1 0.003 μM), −19.2%; with MCF7 cells (AP1 0.01 μM) it was −7.3%; in the data set on MCF7 cells (AP1 0.03 μM) it was −9.1%; in the data set on MCF7 cells (AP1 0.1 μM), 25.0%; in the data set with MCF7 cells (AP1 0.3 μM) it was 62.3%. The “% inhibition” value with MCF7 cells (AP1 30 μM) is 100.0%; with MCF7 cells (AP1 .0003 μM) it was −18.1%. In addition, in data set [2], the “effects on cardiac function” value is on record as “No significant adverse findings”.
